Source: patent US12226458B2, “System for providing an up-to-date and long-acting or ultra-long-acting insulin dose guidance recommendation to treat diabetes mellitus” (Novo Nordisk A/S, priority 2018, dated 2025)

Legend:
[1] = system: insulin-naïve subjects with type 2 diabetes; experiment: BEGIN ONCE SIMPLE USE 26-week randomized treat-to-target trial: HbA1c / glycemic control; assay type: in vivo, human; conditions: for HbA1c change from baseline to Week 26 / HbA1c at Week 26: IDeg OD + metformin; for Patients achieving HbA1c<7% without confirmed hypoglycemia / Subjects achieving HbA1c<7.0% at end-of-trial: 26 weeks
From the text: (§1) This 26-week, multi-center, open-label, randomized, treat-to-target study compared the efficacy and safety of IDeg administered once daily in combination with metformin in insulin-naïve subjects with type 2 diabetes using two different patient-driven titration algorithms: a “Simple” algorithm (IDegSimple), with dose adjustments based on one pre-breakfast SMBG measurement (N=111) versus a “Step-wise” algorithm (IDegStep-wise), with adjustments based on three consecutive pre-breakfast SMBG values (N=111). IDeg was administered using the FlexTouch® insulin pen (Novo Nordisk A/S, Bagsværd, Denmark), with once-weekly dose titration in both groups.
The study was conducted according to the Declaration of Helsinki (2008) and ICH Good Clinical Practice (1996) guidelines, with prior approval by appropriate ethics committees and patient consent obtained in writing prior to the start of any study-related activities. Eligible participants included insulin-naïve men or women ≥18 years of age, with type 2 diabetes, HbA1c 7.0-10.0% (inclusive), and body mass index (BMI) ≤45.0 kg/m^2, who were treated with ≥1000 mg/day metformin alone or in combination with one or two other oral antidiabetic medications (OADs) (including a sulfonylurea [SU] or glinide, dipeptidyl peptidase-4 [DPP-4] inhibitors, α-glucosidase inhibitors or thiazolidinediones [TZDs]), with unchanged dosing for ≥12 weeks prior to randomization. […] Subjects could be withdrawn from the trial due to withdrawal of consent, not fulfilling inclusion/exclusion criteria (randomized in error), non-compliance, or at the discretion of the investigator due to a safety concern. Subjects who were withdrawn after randomization were not to be replaced. This trial is registered at clinicaltrials.gov: NCT01326026.
(§2) HbA1c was analyzed using a Bio-Rad high-performance liquid chromatography method at Visits 1 (screening), 2 (randomization), 14 (Week 12) and 28 (Week 26). Fasting plasma glucose (FPG) blood samples were assayed using a hexokinase-UV method at Visits 2, 14 and 28. At the first visit, subjects were provided with a glucose meter for SMBG measurement and instructions for use; blood glucose was measured with test strips calibrated to plasma glucose to obtain PG-equivalent values presented in this report. Subjects performed SMBG measurements before breakfast weekly after randomization and also performed an 8-point SMBG profile prior to Visits 2, 14 and 28.

[2] = system: people with Type 2 diabetes; conditions: in vivo; cited from earlier work
[3] = system: insulin-naïve subjects with type 2 diabetes; experiment: BEGIN ONCE SIMPLE USE trial: fasting plasma glucose (hexokinase-UV); assay type: in vivo, human
From the text: as §1, §2

[4] = system: insulin-naïve subjects with type 2 diabetes; experiment: BEGIN ONCE SIMPLE USE trial: adverse events; conditions: IDegStep-wise arm; 154 days after starting trial drug, liver metastasis, considered unlikely related to treatment
From the text: (§3) This was a multinational (conducted in the US, Spain, Finland, and Germany), Phase 3b, multi-center, two-armed, parallel group, open-label, randomized, treat-to-target study that compared the efficacy and safety of IDeg OD [IDeg 100 U/mL, FlexTouch® pen, Novo Nordisk A/S, Bagsværd, Denmark], adjusted using two different titration algorithms in combination with metformin. The trial consisted of a 26-week period; total study duration was approximately 28 weeks (including 1 week for screening and a 7-day follow-up period). After discontinuing all OADs other than metformin, subjects were randomized 1:1 by an interactive voice/web response system (IV/WRS) to IDegSimple or IDegStep-wise insulin self-titration algorithms, as defined below. Subjects were instructed to self-titrate in accordance with their respective algorithms and continue with their pre-trial metformin dose. At randomization, Week 4 and Week 12, subjects in both treatment arms received diet and exercise counselling by an HCP.
(§4) Adverse events (AEs) and hypoglycemic episodes were documented throughout the study, with confirmed hypoglycemia defined as episodes of severe hypoglycemia (requiring assistance from another person) and episodes with PG value <3.1 mmol/L (56 mg/dL). Nocturnal confirmed hypoglycemic episodes were those occurring between 00:01 h and 05:59 h (inclusive). Laboratory safety variables, insulin dose and body weight were recorded at pre-specified intervals.
(§5) Treatment-emergent AEs, hypoglycaemic episodes, laboratory parameters, physical examination, electrocardiogram (ECG), fundoscopy/fundusphotography, vital signs, PRO (Device-Specific questionnaires I and II) and insulin dose were summarized with descriptive statistics.
(§6) Treatment-emergent events occurring after first exposure and no later than 7 days after last exposure. Safety analysis set. n number of patients with events, % proportion of patients with events, E number of events, R number of events per 100 patient-years.

[5] = system: insulin-naïve subjects with type 2 diabetes; conditions: in vivo
From the text: as §3, §4, §5, §6

[6] = system: insulin-naïve subjects with type 2 diabetes; conditions: in vivo; remark: listed apart in the source
From the text: This was a multinational (conducted in the US, Spain, Finland, and Germany), Phase 3b, multi-center, two-armed, parallel group, open-label, randomized, treat-to-target study that compared the efficacy and safety of IDeg OD [IDeg 100 U/mL, FlexTouch® pen, Novo Nordisk A/S, Bagsværd, Denmark], adjusted using two different titration algorithms in combination with metformin. The trial consisted of a 26-week period; total study duration was approximately 28 weeks (including 1 week for screening and a 7-day follow-up period). […]
Adverse events (AEs) and hypoglycemic episodes were documented throughout the study, with confirmed hypoglycemia defined as episodes of severe hypoglycemia (requiring assistance from another person) and episodes with PG value <3.1 mmol/L (56 mg/dL). […] Laboratory safety variables, insulin dose and body weight were recorded at pre-specified intervals.
Change from baseline in HbA1c after 26 weeks was analyzed using an analysis of variance (ANOVA) method with treatment, region, sex and antidiabetic therapy at screening as fixed factors, and age and baseline HbA1c as covariates. […] Change in FPG and change in body weight were analyzed using an ANOVA model similar to that used for the primary analysis, but with the relevant baseline value as covariate for each measure. […]

[7] = system: patients with type 2 diabetes; conditions: self-adjusted dose every 3 days from mean of previous 3 days' SMBG; 6 months; cited from earlier work
[8] = system: people with Type 2 diabetes; conditions: INSIGHT; initial dose 10 units, increased by 1 unit each day until FPG ≤5.5 mmol/liter; cited from earlier work

LysB29(Nε-hexadecandioyl-γ-Glu) des(B30) human insulin [IDeg]
HbA1c change from baseline to Week 26 ([1]; IDegSimple arm (Simple titration algorithm)): −1.09% | Patients achieving HbA1c<7% without confirmed hypoglycemia ([1]; IDegSimple arm): 40.6% | Subjects achieving HbA1c<7.0% at end-of-trial ([1]; IDegSimple arm): 56.8% | HbA1c at Week 26 ([1]; IDegSimple arm): 7.0% | HbA1c change from baseline to Week 26 ([1]; IDegStep-wise arm (Step-wise titration algorithm)): −0.93% | Patients achieving HbA1c<7% without confirmed hypoglycemia ([1]; IDegStep-wise arm): 34.6% | Subjects achieving HbA1c<7.0% at end-of-trial ([1]; IDegStep-wise arm): 41.4% | HbA1c at Week 26 ([1]; IDegStep-wise arm): 7.2% | Estimated treatment difference (IDegSimple−IDegStep-wise) in HbA1c change ([1]; Week 26, 95% CI [−0.39, 0.07]): −0.16 %-points | Non-inferiority of IDegSimple to IDegStep-wise in lowering HbA1c ([1]; Week 26, non-inferiority limit 0.4%): non-inferior | Confirmed and nocturnal confirmed hypoglycemia rates with IDeg OD versus comparator insulin glargine [2]: lower than or similar to | Fasting plasma glucose at Week 26 ([3]; IDegSimple arm): 6.1 mmol/L | Fasting plasma glucose at Week 26 ([3]; IDegStep-wise arm): 6.8 mmol/L | Estimated treatment difference (IDegSimple−IDegStep-wise) in FPG ([3]; Week 26, 95% CI [−1.30, 0.17]): -0.57 mmol/L | Deaths [4]: One | Headache: N number of patients with events [5]: 8 | SAE neoplasm event [5]: astrocytoma | SAEs: E number of events [5]: 8 | SAEs: R number of events per 100 patient-years [5]: 15 events per 100 patient-years | Severe hypoglycemic episodes [6]: One

insulin detemir
HbA1c versus standard-of-care, physician-driven adjustments [7]: significantly lower HbA1c

insulin glargine
End HbA1c [8]: 7.0%
